Tests used:
[1] = system: MCF-7 cells; assay: proliferation assay of MCF-7 cells; type: cell-based; settings: for effect on the proliferative response to estradiol: ligand added in the presence of 1 nM estradiol; for ability of the ligand to stimulate the proliferation of MCF-7 cells: ligand alone
Source text: Trifluoromethyl group was introduced onto phenylvinyl estradiol either at the ortho, meta, or para positions. These compounds were examined for their ability to stimulate or inhibit estrogen responses in two assay systems. […] The meta- and para-isomers gave substantially different profiles. […] Therefore, the position of the trifluoromethyl group exerted a significant effect on the efficacy of the ligand.

[2] = system: immature female rat; assay: immature female rat uterotrophic growth assay, estrogenic assay; type: in vivo
Protocol: (§1) These trifluoromethyl substituted compounds were also studied with an immature female rat uterotrophic growth assay; the results are shown in FIGS. 12, 13, and 14. […] Therefore, the agonist responses observed in the in vitro cell proliferation assay were carried over to the intact animal as well. The antiestrogen assay evaluated the ability of the isomers to block the uterotrophic effect induced by 1 nM estradiol. […] Therefore, in both estrogen responsive cells and tissues these new ligands are producing differential responses in affinity and efficacy related to the site of trifluoromethyl substitution on the phenyl ring.

[3] = system: immature female rat; assay: immature female rat uterotrophic growth assay, antiestrogen assay; type: in vivo; settings: 1 nM estradiol
Protocol: as §1

Row | SMILES | effect on the proliferative response to estradiol [1] | ability of the ligand to stimulate the proliferation of MCF-7 cells [1] | estrogenic effect (uterotrophic growth) ([2]; 3 nM level) | estrogenic effect (uterotrophic growth) ([2]; 10 and 100 nM) | ability to block the uterotrophic effect induced by estradiol ([3]; isomer at 10 and 100 nM) | ability to block the uterotrophic effect induced by estradiol ([3]; isomer at 100 nM)
1 | CC12CCC3c4ccc(O)cc4CCC3C1CCC2(O)C=Cc1ccccc1C(F)(F)F (stereo not drawn) [Compound 4a, 17α-20E-21-(2-Trifluoromethylphenyl)-19-norpregna-1,3,5(10),20-tetraene-3,17β-diol] | neither an enhancement nor a diminution of the proliferative response | full agonist response comparable to that of estradiol | effect comparable to estradiol | substantial estrogenic effects | enhancement of the estrogenic response | 
2 | CC12CCC3c4ccc(O)cc4CCC3C1CCC2(O)C=Cc1cccc(C(F)(F)F)c1 (stereo not drawn) [Compound 5a, 17α-20E-21-(3-Trifluoromethylphenyl)-19-norpregna-1,3,5(10),20-tetraene-3,17β-diol] | antagonized the effects of estradiol at the same doses | weak proliferative effect at doses greater than 1 nM |  | little or no estrogenic effects | no significant effect on the estradiol response | 
3 | CC12CCC3c4ccc(O)cc4CCC3C1CCC2(O)C=Cc1ccc(C(F)(F)F)cc1 (stereo not drawn) [Compound 6a, 17α-20E-21-(4-Trifluoromethylphenyl)-19-norpregna-1,3,5(10),20-tetraene-3,17β-diol] | decreases in the estradiol effects were observed below 1 nM | did not elicit a proliferative response until a 10 nM dose was employed |  | little or no estrogenic effects |  | reduced the estrogenic response

Source: patent US8173628B2, “Steroidal antiestrogens and antiandrogens and uses thereof” (Northeastern University, priority 2000, dated 2012)
